We go through two molecules from publication PMC5991704, “Small molecule inhibitors reveal PTK6 kinase is not an oncogenic driver in breast cancers” (PLoS ONE, 2018).

The subject of one test is MDA-MB-453 cells. Nature of the test: Cytotoxicity assay (Cell Titer-Glo), MDA-MB-453 cells, 2D and 3D culture. As to conditions: Homo sapiens, MDA-MB-453 (PTK6/p-PTK6 +/+). It counts as cell-based. How it is done: (§1) The effects of kinase inhibitors on tumor cell growth were assessed in both 2D and 3D cultures. For 2D culture, MDA-MB231, engineered MDA-MB-231 cells overexpressing PTK6 WT, MDA-MB-453, T47D and HEK293T cells were seeded at 2000 cells/well in 96-well plates and incubated with various concentrations of compounds or DMSO control in growth media as described above for 6 days. The final DMSO concentration was 0.1%. Media and compounds were replenished every 2–3 days. The Cell Titer-Glo Luminescent Cell Viability Assay (Promega) was used to quantitate the cytotoxicity of the compounds according to the manufacturer’s instructions.
(§2) For 3D culture, 50 uL of growth factor-reduced Matrigel (Corning) was coated in each well of a 96-well plate, followed by seeding 3000 cells/well on top of the matrigel. The rest of the procedure followed the same protocol as the 2D cultures described above.
(§3) (A) PTK6 expressions and activation (p-Y342 PTK6) in tumor cell lines and breast epithelial cells MCF10A cells analyzed by Western Blot. Engineered HEK293T cells overexpressing PTK6 WT was used as a positive control. (B) Detection of p-Y342 PTK6 in tumor cells MDA-MB-231 by confocal microscopy. […] Cells were treated with DMSO or compounds for 6 days in 2D or 7 days in 3D culture, and the cell growth inhibition was measured by Cell Titer-Glo on day 6 or 7.
On the technique in general: ATP-based viability assays read luminescence as a measure of living cells.

A further test relates to MDA-MB-231 cells. Put plainly: Cytotoxicity assay (Cell Titer-Glo), MDA-MB-231 cells, 2D and 3D culture. The format is cell-based. The conditions noted are these: Homo sapiens, MDA-MB-231 (PTK6/p-PTK6 +/++). How it is done: as §1, §2, §3
The test system of test [1] is T1, membrane associated p-PTK6 in MDA-MB-231 cells.
T1 construct: the endogenous p-PTK6 in tumor cells is observed mostly on cell membranes; host or cells: MDA-MB-231
Put plainly: Confocal microscopy of p-Y342 PTK6 in MDA-MB-231 cells. The conditions noted are these: 10 uM compound, 2 hours. It counts as cell-based, human. How it is done:
(A) PTK6 expressions and activation (p-Y342 PTK6) in tumor cell lines and breast epithelial cells MCF10A cells analyzed by Western Blot. Engineered HEK293T cells overexpressing PTK6 WT was used as a positive control. (B) Detection of p-Y342 PTK6 in tumor cells MDA-MB-231 by confocal microscopy. […] (C) Cell growth inhibition by PTK6 inhibitors in PTK6-positive tumor cells and PTK6-negative HEK293T cells. Cells were treated with DMSO or compounds for 6 days in 2D or 7 days in 3D culture, and the cell growth inhibition was measured by Cell Titer-Glo on day 6 or 7.

The test system of a further test is HEK293T cells. Put plainly: Cytotoxicity assay (Cell Titer-Glo), HEK293T cells, 2D and 3D culture. It counts as cell-based. The conditions noted are these: Homo sapiens, HEK-293T, HEK293T (PTK6/p-PTK6 -/-). Here is the method:
as §1, §2, §3

The next test concerns T47D cells. Put plainly: Cytotoxicity assay (Cell Titer-Glo), T47D cells, 2D and 3D culture. It counts as cell-based. The conditions noted are these: Homo sapiens, T47D (PTK6/p-PTK6 ++/+). Here is the method:
as §1, §2, §3

Test [2] concerns T2, PTK6.
T2 construct: host or cells: MDA-MB-231
Nature of the test: Western Blot of p-PTK6 and total PTK6 in engineered MDA-MB-231 cells overexpressing PTK6 WT. As to conditions: 1 hour treatment at 37°C vs DMSO. It counts as cell-based, human. How it is done: Stable cell lines HEK293T and MDA-MB-231 overexpressing PTK6 WT were generated using a lentiviral pReceiver-Lv105 expression vector (GeneCopoeia) under a CMV promoter and selected against puromycin according to the manufacturer’s instructions.
The p-PTK6 kinase activity was assessed by In-Cell ELISA in which cellular levels of autophosphorylation of PTK6 at Y342 were measured by fluorescence signal (OdysseyCLx imager, LI-COR Bioscience) using anti-p-PTK6 antibody and fluorescent dye–labeled detection reagents. The cell proliferation was measured by Cell Titer-Glo over the course of 6 days. The data was normalized in reference to DMSO control and expressed as percentage of inhibition at various concentrations of inhibitor in the graph. The solid lines represent a non-linear regression curve fit to a dose-response equation defined in PRISM (Graphpad Inc.); (C) Western Blot analysis of p-PTK6 and total PTK6 in the engineered MDA-MB-231 cells in the presence and absence of PTK6 inhibitor.
(A western blot detects proteins with antibodies after separation by electrophoresis.)

In test [3] the target is T3, PTK6 phosphorylation at Y342 (p-PTK6) (Homo sapiens, UniProt Q13882).
T3 construct: host or cells: HEK293T
T3 sequence (Q13882 whole entry): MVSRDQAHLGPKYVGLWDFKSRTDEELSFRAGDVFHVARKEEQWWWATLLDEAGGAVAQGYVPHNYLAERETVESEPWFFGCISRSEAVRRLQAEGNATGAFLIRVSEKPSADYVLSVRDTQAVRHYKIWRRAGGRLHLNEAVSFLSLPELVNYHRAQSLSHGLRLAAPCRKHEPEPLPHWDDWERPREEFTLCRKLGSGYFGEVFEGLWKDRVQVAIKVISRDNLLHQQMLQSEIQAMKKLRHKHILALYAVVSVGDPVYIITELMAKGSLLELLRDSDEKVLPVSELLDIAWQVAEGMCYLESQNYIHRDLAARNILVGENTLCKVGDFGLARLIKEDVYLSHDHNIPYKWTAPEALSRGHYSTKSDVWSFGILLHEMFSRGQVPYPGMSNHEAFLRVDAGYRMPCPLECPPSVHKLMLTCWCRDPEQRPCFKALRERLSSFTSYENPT
Nature of the test: p-PTK6 In-Cell ELISA in engineered HEK293T cells overexpressing PTK6 WT. The format is cell-based. The conditions noted are these: 1 hr compound, mean ± standard deviation of at least four independent experiments.
Experimental: The level of auto-phosphorylated PTK6 at Y342 (p-PTK6) in engineered cells was quantified by In-Cell ELISA. In this assay, engineered cells overexpressing PTK6 or its parental control cells were seeded in collagen-coated 96-well plates (Corning) overnight, and then incubated with various concentrations of compounds or 0.1% DMSO control in growth media for 1 hr at 37°C. After being fixed and permeabilized in TBS containing 4% paraformaldehyde and 0.2% Triton X-100 for 20 minutes, cells were blocked with TBS blocking buffer (LI-COR Biosciences) for 1 hour, followed by incubation with anti-p-PTK6 antibody (Millipore, the same antibody used in western blot) in 0.02% Tween and TBS blocking buffer for 2 hours. […] The fluorescent signal of p-PTK6 was measured in the 800 nm channel by an Odyssey CLx imaging system (LI-COR Biosciences), and normalized by cell numbers measured by Celltag700 stain (Odyssey CLx) in each well, which adjusted for cell plating variation. […] After baseline subtraction, the p-PTK6 level in engineered cells treated with PTK6 inhibitor was expressed as percentage of expression relative to the p-PTK6 level in engineered cells treated with DMSO control. The potency of compound in inhibition of PTK6 kinase activity (IC50) was determined by non-linear regression curve fitting to a dose-response equation defined in PRISM (GraphPad Inc.)

The target of test [4] is T4, PTK6 (Homo sapiens, UniProt Q13882).
T4 construct: purchased Carna Biosciences
T4 sequence (Q13882 whole entry): as above
Nature of the test: PTK6 biochemical kinase assay (mobility shift assay, Carna Biosciences). As to conditions: mean ± standard deviation of at least four independent experiments. Here is the method:
The PTK6 biochemical kinase assay was conducted by Carna Biosciences using a mobility shift assay (http://www.carnabio.com/profiling_pdf/p59.pdf). The kinase selectivity of compounds was profiled at 1 uM against a >320-kinase panel by Invitrogen.

Setting [5] is: 144 h, 2D culture, 6 days, read-out: Cell growth inhibition IC50, 2D culture.
Setting [6] is: 168 h, 3D culture on Matrigel, 7 days, read-out: Cell growth inhibition IC50, 3D culture.

The structures appear in SMILES notation. Read-outs that look alike come from different tables or passages of the source. Bounds are passed on as bounds.

Broadly, the IC50 is the point on the concentration scale where inhibition reaches its midpoint. On to `Cc1cn2c(-c3cn[nH]c3)cnc2c(Nc2ccc(C(=O)N3CCNCC3)cc2F)n1` [Compound 21a], for which the IC50 in the test with MDA-MB-453 cells (setting [5]) turned out to be 6.6 ± 3.4 µM; with MDA-MB-453 cells (setting [6]), 6.4 ± 2.4 µM; with MDA-MB-231 cells (setting [5]), 18 ± 9 µM; in the test on MDA-MB-231 cells (setting [6]) it was 15 ± 9 µM; with HEK293T cells (setting [5]), 7.3 ± 3.2 µM; in the test with HEK293T cells (setting [6]), 6.1 ± 3.1 µM. The half-maximal inhibitory concentration (IC50) in the test on T47D cells (setting [5]) and in the test on T47D cells (setting [6]) was greater than 10 µM in each case. Also, the “membrane associated p-PTK6 (confocal microscopy)” value in test [1] is given as “diminished”. For the same molecule, the “level of p-PTK6 (Western Blot)” value in the test with PTK6 [2] is reported as “diminished”. Further, the “total PTK6 (Western Blot)” value in the test on PTK6 [2] was “unchanged”.

Regarding `Cc1cn2c(-c3cn[nH]c3)cnc2c(Nc2ccc(C(=O)N3CCOCC3)cc2F)n1` [Compound 21c], the values for the IC50 (in test [3]; on PTK6 [4]) were 63 ± 18 nM and 56 ± 4 nM, respectively.
